The record followed here is patent US20120172386A1, “Combinations Comprising a VEGF Receptor Inhibitor” (NOVARTIS AG, priority 2005, published 2012).

A word on the melting point: it is the temperature, or range, at which the solid turns liquid.

A short description of data set [1]: Percutaneous penetration/permeation in static Franz-type diffusion cells with split-thickness human cadaver skin. The format is in vitro ADME. The following applies: solution b (1% in propylene glycol/oleyl alcohol 9:1); for Skin concentration: 48 hours, stratum corneum removed. The procedure:
Frozen human dorsal cadaver skin (Caucasian; back skin) was obtained from the National Disease Research Interchange, Philadelphia, USA. Skin from three different donors was used;
Thawed skin samples were dermatomed to 0.7 mm with an Aesculap dermatome to obtain “split-thickness” skin.
Percutaneous penetration was studied in vitro by means of static Franz-type diffusion cells with phosphate buffered saline/fetal calf serum 2:1 as receptor fluid at 32° in triplicates for 48 hours. The compounds were applied as 1% solutions (300 μl each) in propylene glycol (solution a) or in propylene glycol/oleyl alcohol 9:1 (solution b). Samples of 100 μl were taken 5 to 7 times and replaced by fresh receptor fluid as described previously (Schmook, et al., Skin Pharmacol. 1993, 6:116-124).
Drug analysis was performed with specimens of the exposed skin (at the end of the 48 hours experiment), from which the stratum corneum had been removed by 20 strippings with an adhesive tape. The weighed skin samples were homogenized in 0.2 M ammonium phosphate buffer (pH 7.0). The homogenates were extracted with ethyl acetate and processed as described (Schmook, et al 1993).

In turn, `Nc1nccc(CCc2ccc3c(C(=O)Nc4cccc(C(F)(F)F)c4)cccc3c2)n1` [Example 70, 6-[2-(2-Amino-pyrimidin-4-yl)-ethyl]-naphthalene-1-carboxylic acid (3-trifluoromethyl-phenyl)-amide] returned a melting point of 225 to 227 °C.

`CNc1cc(Oc2ccc3c(C(=O)Nc4ccc(F)c(C(F)(F)F)c4)cncc3c2)ncn1` [Example 95, 7-(6-Methylamino-pyrimidin-4-yloxy)-isoquinoline-4-carboxylic acid (4-fluoro-3-trifluoromethyl-phenyl)-amide] yielded a melting point of 255 to 257 °C.

In turn, `CN(C)Cc1cc(Oc2ccc3c(C(=O)Nc4cccc(C(F)(F)F)c4)cccc3c2)ncn1` [Example 55, 6-(6-Dimethylaminomethyl-pyrimidin-4-yloxy)-naphthalene-1-carboxylic acid (3-trifluoromethyl-phenyl)-amide] registered a melting point of 180 to 181 °C.

In turn, `CNc1cc(Oc2ccc3c(C(=O)Nc4ccc(N5CCOCC5)c(C(F)(F)F)c4)cccc3c2)ncn1` [Example 40, 6-(6-Methylamino-pyrimidin-4-yloxy)-naphthalene-1-carboxylic acid (4-morpholin-4-yl-3-trifluoromethyl-phenyl)-amide] registered a melting point of 156 to 157 °C.

For `Nc1cc(C#Cc2ccc3c(C(=O)Nc4cccc(C(F)(F)F)c4)cccc3c2)ncn1` [Example 71, 6-(6-Amino-pyrimidin-4-ylethynyl)-naphthalene-1-carboxylic acid (3-trifluoromethyl-phenyl)-amide], the melting point is 217 to 220 °C.

Take `Nc1cc(Oc2ccc3c(C(=O)Nc4cccc(C(F)(F)F)c4)cccc3c2)ncn1` [Example 26, 6-(6-Amino-pyrimidin-4-yloxy)-naphthalene-1-carboxylic acid (3-trifluoromethyl-phenyl)-amide]: the melting point is 243 to 244 °C.

`Nc1cc(Sc2ccc3c(C(=O)Nc4cccc(OC(F)(F)F)c4)cccc3c2)ncn1` [Example 61, 6-(6-Amino-pyrimidin-4-ylsulfanyl)-naphthalene-1-carboxylic acid (3-trifluoromethoxy-phenyl)-amide]: the melting point lay within 197 to 199 °C.

The compound `Nc1nc(Cl)cc(Oc2ccc3c(C(=O)Nc4cccc(C(F)(F)F)c4)cccc3c2)n1` [Example 13, 6-(2-Amino-6-chloro-pyrimidin-4-yloxy)-naphthalene-1-carboxylic acid (3-trifluoromethyl-phenyl)-amide] came in with a melting point of 234 to 236 °C.

In the case of `O=C(Nc1cccc(C(F)(F)F)c1)c1cccc2cc(Oc3cc(CCl)ncn3)ccc12` [Example 53, 6-(6-Chloromethyl-pyrimidin-4-yloxy)-naphthalene-1-carboxylic acid (3-trifluoromethyl-phenyl)-amide], the melting point lay within 178 to 181 °C.

On to `Nc1cc(Oc2ccc3c(C(=O)Nc4cccc(C(F)(F)F)c4)cccc3c2)ncn1` [drawing 77], for which, in data set [1] (batch of skin 3), the Permeation rate is 12 ± 4 ng/mL/h and the Skin concentration was found to be 34 ± 3 µg/g.

As for `Nc1cc(Oc2ccc3c(C(=O)Nc4ccc(F)c(C(F)(F)F)c4)cccc3c2)ncn1` [drawing 78], in data set [1] (batch of skin 3), the Permeation rate was 22 ± 3 ng/mL/h and the Skin concentration came to 19 ± 7 µg/g.

With `CCN1CCN(Cc2ccc(-c3cc4c(N[C@H](C)c5ccccc5)ncnc4[nH]3)cc2)CC1`, the Permeation rate in data set [1] (batch of skin 1) amounted to 182 ± 68 ng/mL/h; in data set [1] (batch of skin 2), 189 ± 43 ng/mL/h. Further, the figures for the Skin concentration in data set [1] (batch of skin 1) and in data set [1] (batch of skin 2) were 35 ± 12 µg/g and 72 ± 24 µg/g, respectively.

In data set [1] (batch of skin 2), `Nc1nccc(Oc2ccc3c(C(=O)Nc4cccc(C(F)(F)F)c4)cccc3c2)n1` [drawing 76] returned a Permeation rate of 13 ± 3 ng/mL/h and a Skin concentration of 44 ± 17 µg/g. In data set [1] (batch of skin 3), this compound showed a Permeation rate of 8 ± 2 ng/mL/h and a Skin concentration of 24 ± 6 µg/g.

Consider `Nc1cc(Sc2ccc3c(C(=O)Nc4cccc(C(F)(F)F)c4)cccc3c2)ncn1` [Example 58, 6-(6-Amino-pyrimidin-4-ylsulfanyl)-naphthalene-1-carboxylic acid (3-trifluoromethyl-phenyl)-amide], for which the melting point stood at 205 °C.

`CNCc1cc(Oc2ccc3c(C(=O)Nc4cccc(C(F)(F)F)c4)cccc3c2)ncn1` [Example 54, 6-(6-Methylaminomethyl-pyrimidin-4-yloxy)-naphthalene-1-carboxylic acid (3-trifluoromethyl-phenyl)-amide] displayed a melting point of 141 to 143 °C.

For the compound `CC(C)c1ccc(-n2nc(C(C)(C)C)cc2NC(=O)c2cncc3cc(Oc4cc(N)ncn4)ccc23)cc1` [Example 93, 7-(6-Amino-pyrimidin-4-yloxy)-isoquinoline-4-carboxylic acid [5-tert-butyl-2-(4-isopropyl-phenyl)-2H-pyrazol-3-yl]-amide], the melting point was 131 to 133 °C.

As for `Clc1ccc(Nc2nnc(Cc3ccncc3)c3ccccc23)cc1`, in data set [1] (batch of skin 1), the Permeation rate was determined as 286 ± 90 ng/mL/h and the Skin concentration came out at 10.4 ± 2.0 µg/g.

In data set [1] (batch of skin 3), `Nc1nccc(Oc2ccc3c(C(=O)Nc4ccc(F)c(C(F)(F)F)c4)cccc3c2)n1` had a Permeation rate of 19 ± 3 ng/mL/h and a Skin concentration of 46 ± 13 µg/g.

In turn, `Nc1cc(Sc2ccc3c(C(=O)Nc4ccc(F)c(C(F)(F)F)c4)cccc3c2)ncn1` [Example 57, 6-(6-Amino-pyrimidin-4-ylsulfanyl)-naphthalene-1-carboxylic acid (4-fluoro-3-trifluoromethyl-phenyl)-amide] displayed a melting point of 221 °C.

Take `CN(C)CCNC(=O)c1cc(Oc2ccc3c(C(=O)Nc4cccc(C(F)(F)F)c4)cccc3c2)ccn1` [Example 67, 4-[5-(3-Trifluoromethyl-phenylcarbamoyl)-naphthalen-2-yloxy]-pyridine-2-carboxylic acid (2-dimethylamino-ethyl)-amide]: the melting point was in the range of 80 to 82 °C.

`CNc1cc(Oc2ccc3c(C(=O)Nc4cccc(C(F)(F)F)c4)cncc3c2)ncn1` [Example 96, 7-(6-Methylamino-pyrimidin-4-yloxy)-isoquinoline-4-carboxylic acid (3-trifluoromethyl-phenyl)-amide] showed a melting point of 205 to 208 °C.

`COC(=O)Nc1nccc(Oc2ccc3c(C(=O)Nc4cccc(C(F)(F)F)c4)cccc3c2)n1` [Example 19, 6-(2-Methoxycarbonylamino-pyrimidin-4-yloxy)-naphthalene-1-carboxylic acid (3-trifluoromethyl-phenyl)-amide] gave a melting point of 199 to 200 °C.

`NC(=O)c1cc(Oc2ccc3c(C(=O)Nc4cccc(C(F)(F)F)c4)cccc3c2)ccn1` [Example 66, 4-[5-(3-Trifluoromethyl-phenylcarbamoyl)-naphthalen-2-yloxy]-pyridine-2-carboxylic acid amide]: the melting point is 117 to 120 °C.

Consider `COC(=O)Nc1cc(Oc2ccc3c(C(=O)Nc4cccc(C(F)(F)F)c4)cccc3c2)ccn1` [Example 69, {4-[5-(3-Trifluoromethyl-phenylcarbamoyl)-naphthalen-2-yloxy]-pyridin-2-yl}-carbamic acid methyl ester], for which the melting point was in the range of 230 to 232 °C.

As to `Nc1cc(Oc2ccc3c(C(=O)Nc4cccc(C(F)(F)F)c4)cccc3c2)ccn1` [Example 68, 6-(2-Amino-pyridin-4-yloxy)-naphthalene-1-carboxylic acid (3-trifluoromethyl-phenyl)-amide], the melting point fell in the range of 222 to 224 °C.

Consider `CCCCOC(=O)c1cc(Oc2ccc3c(C(=O)Nc4cccc(C(F)(F)F)c4)cccc3c2)ccn1` [Example 64, 4-[5-(3-Trifluoromethyl-phenylcarbamoyl)-naphthalen-2-yloxy]-pyridine-2-carboxylic acid butyl ester], for which the melting point lay in the range of 128 to 130 °C.

In turn, `N#Cc1cc(Oc2ccc3c(C(=O)Nc4cccc(C(F)(F)F)c4)cccc3c2)ncn1` [Example 43, 6-(6-Cyano-pyrimidin-4-yloxy)-naphthalene-1-carboxylic acid (3-trifluoromethyl-phenyl)-amide] displayed a melting point of 167 °C.

Turning to `CNC(=O)c1cc(Oc2ccc3c(C(=O)Nc4cccc(C(F)(F)F)c4)cccc3c2)ccn1` [Example 65, 4-[5-(3-Trifluoromethyl-phenylcarbamoyl)-naphthalen-2-yloxy]-pyridine-2-carboxylic acid methylamide], the melting point is 175 to 177 °C.

For the compound `CC(C)NC(=O)c1cc(Oc2ccc3c(C(=O)Nc4cccc(C(F)(F)F)c4)cccc3c2)ncn1` [Example 51, 6-[5-(3-Trifluoromethyl-phenylcarbamoyl)-naphthalen-2-yloxy]-pyrimidine-4-carboxylic acid isopropylamide], the melting point lay within 205 to 208 °C.

Compound `Nc1cc(Oc2ccc3c(C(=O)Nc4ccc(F)c(C(F)(F)F)c4)cccc3c2)ncn1` came in with a melting point of 224 to 225 °C.

Turning to `CC(C)(C)c1cc(NC(=O)c2cncc3cc(Oc4cc(N)ncn4)ccc23)n(-c2ccc(F)cc2)n1` [Example 94, 7-(6-Amino-pyrimidin-4-yloxy)-isoquinoline-4-carboxylic acid [5-tert-butyl-2-(4-fluoro-phenyl)-2H-pyrazol-3-yl]-amide], the melting point was in the range of 124 to 126 °C.
